Values quoted from earlier work as cited in patent publication US20050119124A1, “Phosphorus and potassium fertilizer for all forms of perennial trees, vines and annual crops” (priority 1999, published 2005).

Conditions: 18C

Structure (SMILES): OP(O)O [Phosphorous acid, phosphorous acid]
- pK, first acid group: 2.00
- pK, second acid group: 6.59
